Reference: DBAASP
In brackets after ≈: the same amount, converted by molar mass. Values belong to the compound of their own block, whether it stands above or below them.

How the values were obtained:
Experiment in all cases: ≥ marks a high value that may be exact or a test limit, other limits are often not marked, values filed in µg/mL are converted to µM
[1] = system: Acinetobacter baumannii 97830
[2] = system: Staphylococcus aureus 113
Escherichia coli 780 = system: Escherichia coli 780
Staphylococcus aureus 75 = system: Staphylococcus aureus 75
[3] = system: Pseudomonas aeruginosa ATCC 9027
[4] = system: Staphylococcus aureus ATCC 29213
[5] = system: Acinetobacter baumannii 9931
[6] = system: Pseudomonas aeruginosa 73
Escherichia coli 804 = system: Escherichia coli 804
[7] = system: Pseudomonas aeruginosa ATCC 27853
[8] = system: Acinetobacter baumannii ATCC 19606
[9] = system: Staphylococcus epidermidis ATCC 12228
[10] = system: Klebsiella pneumoniae ATCC 700603
[11] = system: Pseudomonas aeruginosa 50
[12] = system: Bacillus subtilis ATCC 23857
[13] = system: Staphylococcus aureus ATCC 6538P
[14] = system: Klebsiella pneumoniae ATCC 10031
[15] = system: Bacillus subtilis ATCC 6633
[16] = system: Escherichia coli ATCC 25922
[17] = system: Staphylococcus aureus TK784
[18] = system: Micrococcus luteus ATCC 10240
[19] = system: Salmonella enterica subsp. enterica serovar Typhimurium ATCC 14028
[20] = system: Shigella dysenteriae ATCC 9752
[21] = system: Staphylococcus aureus ATCC BAA-1556
[22] = system: Klebsiella pneumoniae LMG 20218
[23] = system: Pseudomonas aeruginosa LMG 6395
[24] = system: Klebsiella aerogenes LMG 02094
[25] = system: Escherichia coli LMG 15862
[26] = system: Acinetobacter baumannii LMG 01041
[27] = system: Streptococcus mitis ATCC 903
[28] = system: Streptococcus mutans UA159
[29] = system: Pseudomonas aeruginosa PAK
[30] = system: Streptococcus gordonii Challis DL1
Staphylococcus aureus = system: Staphylococcus aureus
[31] = system: Streptococcus sanguinis NY101

Compound: CC(C)C[C@H](NC(=O)[C@H](CC(C)C)NC(=O)[C@H](Cc1c[nH]c2ccccc12)NC(=O)[C@H](CCCCN)NC(=O)[C@H](CC(C)C)NC(=O)[C@H](CC(C)C)NC(=O)[C@H](Cc1c[nH]c2ccccc12)NC(=O)[C@H](CCCCN)NC(=O)[C@@H](N)CC(C)C)C(N)=O [LKWLLKWLL]
MIC [13]: 1.07 µM (≈ 1.3 µg/mL)
MIC [14]: 4.12 µM (≈ 5 µg/mL)
MIC [7]: 8.25 µM (≈ 9.99 µg/mL)
MIC [15]: 1.07 µM (≈ 1.3 µg/mL)
MIC [16]: 4.12 µM (≈ 5 µg/mL)
MIC [17]: 2.06 µM (≈ 2.5 µg/mL)
MIC [9]: 1.07 µM (≈ 1.3 µg/mL)
MIC [18]: 2.06 µM (≈ 2.5 µg/mL)
MIC [19]: 8.25 µM (≈ 9.99 µg/mL)
MIC [20]: 2.06 µM (≈ 2.5 µg/mL)

Compound: CC(C)C[C@H](NC(=O)[C@H](CCCCN)NC(=O)[C@H](CC(C)C)NC(=O)[C@H](CC(C)C)NC(=O)[C@H](CC(C)C)NC(=O)[C@H](CC(C)C)NC(=O)[C@H](CC(C)C)NC(=O)[C@H](CCCCN)NC(=O)[C@@H](N)CC(C)C)C(N)=O [LKLLLLLKL]
MIC [21]: ≥ 100 µM

Compound: CC(C)C[C@H](NC(=O)[C@H](CC(C)C)NC(=O)[C@H](CC(C)C)NC(=O)[C@H](CCCCN)NC(=O)[C@H](CC(C)C)NC(=O)[C@H](CC(C)C)NC(=O)[C@H](CC(C)C)NC(=O)[C@@H](N)CC(C)C)C(=O)N[C@@H](CCCCN)C(N)=O [LLLLKLLLK]
MIC [21]: ≥ 100 µM

Compound: CC[C@H](C)[C@H](NC(=O)[C@H](Cc1ccccc1)NC(=O)[C@H](Cc1cnc[nH]1)NC(=O)[C@H](CCCCN)NC(=O)[C@@H](NC(=O)[C@@H](N)Cc1ccccc1)[C@@H](C)CC)C(=O)N[C@@H](Cc1cnc[nH]1)C(=O)N[C@@H](CCCN=C(N)N)C(=O)N[C@@H](Cc1ccccc1)C(=O)N[C@@H](CO)C(=O)NCC(=O)NCC(=O)N[C@@H](CCCN=C(N)N)C(=O)N[C@@H](Cc1c[nH]c2ccccc12)C(=O)N[C@@H](CCCN=C(N)N)C(=O)N[C@@H](Cc1c[nH]c2ccccc12)C(=O)N[C@@H](CCCN=C(N)N)C(=O)N[C@@H](Cc1c[nH]c2ccccc12)C(=O)N[C@@H](Cc1ccccc1)C(N)=O [FIKHFIHRFSGGRWRWRWF]
MIC [27]: 12.2 µM (≈ 32 µg/mL)
MIC [28]: 3.05 µM (≈ 8 µg/mL)
MIC [29]: 23.9 µM (≈ 62.5 µg/mL)
MIC [30]: 12.2 µM (≈ 32 µg/mL)
MIC (Staphylococcus aureus): 12.2 µM (≈ 32 µg/mL)
MIC [31]: 12.2 µM (≈ 32 µg/mL)

Compound: CC(C)C[C@H](NC(=O)[C@H](CC(C)C)NC(=O)[C@H](CC(C)C)NC(=O)[C@H](CC(C)C)NC(=O)[C@H](CC(C)C)NC(=O)[C@H](CC(C)C)NC(=O)[C@H](CCCCN)NC(=O)[C@H](CCCCN)NC(=O)[C@@H](N)CC(C)C)C(N)=O [LKKLLLLLL]
MIC [21]: ≥ 100 µM

Now from value to compound:

MIC [1]: 16 µM (≈ 17.8 µg/mL)
MIC [2]: 8 µM (≈ 8.91 µg/mL)
MIC (Escherichia coli 780): 16 µM (≈ 17.8 µg/mL)
MIC (Staphylococcus aureus 75): 4 µM (≈ 4.46 µg/mL)
MIC [3]: 32 µM (≈ 35.7 µg/mL)
MIC [4]: 4 µM (≈ 4.46 µg/mL)
MIC [5]: 16 µM (≈ 17.8 µg/mL)
MIC [6]: ≥ 32 µM
MIC (Escherichia coli 804): 16 µM (≈ 17.8 µg/mL)
MIC [7]: 16 µM (≈ 17.8 µg/mL)
MIC [8]: 64 µM (≈ 71.3 µg/mL)
MIC [9]: 8 µM (≈ 8.91 µg/mL)
MIC [10]: 32 µM (≈ 35.7 µg/mL)
MIC [11]: 16 µM (≈ 17.8 µg/mL)
MIC [12]: 8 µM (≈ 8.91 µg/mL)
Compound: CC(C)C[C@H](NC(=O)[C@H](CCCN=C(N)N)NC(=O)[C@H](Cc1c[nH]c2ccccc12)NC(=O)[C@H](Cc1c[nH]c2ccccc12)NC(=O)[C@H](Cc1c[nH]c2ccccc12)NC(=O)[C@H](CCCN=C(N)N)NC(=O)[C@@H](N)CC(C)C)C(N)=O [LRWWWRL]

MIC [22]: ≥ 256 µM
MIC [23]: ≥ 32 µM
MIC [24]: ≥ 256 µM
MIC [25]: 24 µM (≈ 37.2 µg/mL)
MIC [26]: ≥ 256 µM
Compound: CC[C@H](C)[C@H](NC(=O)[C@H](CCCN=C(N)N)NC(=O)[C@H](CCCN=C(N)N)NC(=O)[C@H](CCCCN)NC(=O)[C@@H](NC(=O)[C@@H](N)CCCN=C(N)N)[C@@H](C)CC)C(=O)N[C@@H](CCCCN)C(=O)N[C@@H](CCCCN)C(=O)N[C@@H](Cc1c[nH]c2ccccc12)C(=O)N[C@@H](CC(C)C)C(=O)N[C@@H](CCCN=C(N)N)C(N)=O [RIKRRIKKWLR]

MIC [22]: ≥ 256 µM
MIC [23]: ≥ 256 µM
MIC [24]: ≥ 256 µM
MIC [25]: ≥ 256 µM
MIC [26]: ≥ 256 µM
Compound: CC[C@H](C)[C@H](NC(=O)[C@H](CCCN=C(N)N)NC(=O)[C@H](CCC(N)=O)NC(=O)[C@@H](NC(=O)[C@@H](NC(=O)[C@@H](N)CCCN=C(N)N)[C@@H](C)CC)C(C)C)C(=O)N[C@@H](CCCCN)C(=O)N[C@@H](CCCCN)C(=O)N[C@@H](Cc1c[nH]c2ccccc12)C(=O)N[C@@H](CCCN=C(N)N)C(N)=O [RIVQRIKKWR]

MIC [1]: 16 µM (≈ 22.8 µg/mL)
MIC [2]: 4 µM (≈ 5.71 µg/mL)
MIC (Escherichia coli 780): 8 µM (≈ 11.4 µg/mL)
MIC (Staphylococcus aureus 75): 4 µM (≈ 5.71 µg/mL)
MIC [3]: 16 µM (≈ 22.8 µg/mL)
MIC [4]: 4 µM (≈ 5.71 µg/mL)
MIC [5]: 16 µM (≈ 22.8 µg/mL)
MIC [6]: ≥ 64 µM
MIC (Escherichia coli 804): ≥ 32 µM
MIC [7]: 16 µM (≈ 22.8 µg/mL)
MIC [8]: 64 µM (≈ 91.3 µg/mL)
MIC [9]: 2 µM (≈ 2.85 µg/mL)
MIC [10]: 32 µM (≈ 45.7 µg/mL)
MIC [11]: 8 µM (≈ 11.4 µg/mL)
MIC [12]: 2 µM (≈ 2.85 µg/mL)
Compound: CC(C)C[C@H](NC(=O)[C@H](CCCN=C(N)N)NC(=O)[C@H](CCCN=C(N)N)NC(=O)[C@H](Cc1c[nH]c2ccccc12)NC(=O)[C@H](Cc1c[nH]c2ccccc12)NC(=O)[C@H](Cc1c[nH]c2ccccc12)NC(=O)[C@H](CCCN=C(N)N)NC(=O)[C@H](CCCN=C(N)N)NC(=O)[C@@H](N)CC(C)C)C(N)=O [LRRWWWRRL]

MIC [22]: ≥ 32 µM
MIC [23]: 16 µM (≈ 23.9 µg/mL)
MIC [24]: ≥ 128 µM
MIC [25]: 12 µM (≈ 17.9 µg/mL)
MIC [26]: ≥ 64 µM
Compound: CC[C@H](C)[C@H](NC(=O)[C@H](CCCN=C(N)N)NC(=O)[C@H](CCC(N)=O)NC(=O)[C@@H](NC(=O)[C@@H](NC(=O)[C@@H](N)CCCN=C(N)N)[C@@H](C)CC)C(C)C)C(=O)N[C@@H](CCCCN)C(=O)N[C@@H](CCCCN)C(=O)N[C@@H](Cc1c[nH]c2ccccc12)C(=O)N[C@@H](CC(C)C)C(=O)N[C@@H](CCCN=C(N)N)C(N)=O [RIVQRIKKWLR]

MIC [1]: ≥ 64 µM
MIC [2]: 16 µM (≈ 26.1 µg/mL)
MIC (Escherichia coli 780): ≥ 64 µM
MIC (Staphylococcus aureus 75): 8 µM (≈ 13.1 µg/mL)
MIC [3]: > 128 µM
MIC [4]: 8 µM (≈ 13.1 µg/mL)
MIC [5]: ≥ 32 µM
MIC [6]: ≥ 128 µM
MIC (Escherichia coli 804): ≥ 64 µM
MIC [7]: > 128 µM
MIC [8]: > 128 µM
MIC [9]: 4 µM (≈ 6.53 µg/mL)
MIC [10]: 32 µM (≈ 52.3 µg/mL)
MIC [11]: ≥ 128 µM
MIC [12]: 4 µM (≈ 6.53 µg/mL)
Compound: NC(=O)[C@H](Cc1c[nH]c2ccccc12)NC(=O)[C@H](Cc1c[nH]c2ccccc12)NC(=O)[C@H](CCCN=C(N)N)NC(=O)[C@H](Cc1c[nH]c2ccccc12)NC(=O)[C@H](Cc1c[nH]c2ccccc12)NC(=O)[C@H](Cc1c[nH]c2ccccc12)NC(=O)[C@H](CCCN=C(N)N)NC(=O)[C@H](Cc1c[nH]c2ccccc12)NC(=O)[C@@H](N)Cc1c[nH]c2ccccc12 [WWRWWWRWW]
